Here are results for one substance from PMC5908784, “Extracellular loops 2 and 3 of the calcitonin receptor selectively modify agonist binding and efficacy” (Biochemical Pharmacology, 2018).

What all share (experiment): Homologous whole cell competition binding
Holding throughout (conditions): homologous competition of 125I-sCT(8-32), whole cells, mean ± S.E.M., SEM

The target of one experiment is T1, hCTR T295A (Homo sapiens, UniProt P30988, T295A).
T1 construct: c-Myc (N); expressed in transfected cells
T1 sequence (P30988 25-474 T295A): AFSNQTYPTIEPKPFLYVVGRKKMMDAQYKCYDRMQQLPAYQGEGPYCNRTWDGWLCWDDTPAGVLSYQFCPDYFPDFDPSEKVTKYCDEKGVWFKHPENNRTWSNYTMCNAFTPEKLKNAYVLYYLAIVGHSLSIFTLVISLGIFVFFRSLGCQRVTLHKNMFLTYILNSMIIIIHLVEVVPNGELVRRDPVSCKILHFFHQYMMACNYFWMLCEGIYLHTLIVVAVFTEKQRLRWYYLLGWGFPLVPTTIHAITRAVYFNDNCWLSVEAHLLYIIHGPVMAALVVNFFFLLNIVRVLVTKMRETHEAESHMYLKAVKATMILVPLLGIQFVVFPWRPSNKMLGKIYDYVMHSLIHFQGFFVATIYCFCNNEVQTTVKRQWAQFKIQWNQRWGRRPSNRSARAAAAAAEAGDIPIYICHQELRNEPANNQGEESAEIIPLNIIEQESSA
The gist of the method:
(§1)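 Homologous competition, intact cells, 4 °C overnight; tracer ^125I-sCT(8-32) 25–100 pM (two concs) vs cold sCT(8-32); NSB 1 μM cold peptide; γ counter; 3-param logistic IC50 → Cheng-Prusoff pKi; Bmax also estimated.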

Another experiment concerns the target T2, hCTR T280A (Homo sapiens, UniProt P30988, T280A).
T2 construct: expressed in transfected cells
T2 sequence (P30988 25-474 T280A): T1 sequence (P30988 25-474 T295A) with T256A, A271T
The gist of the method:
as §1

Another experiment deals with T3, hCTR Y284A (Homo sapiens, UniProt P30988, Y284A).
T3 construct: expressed in transfected cells
T3 sequence (P30988 25-474 Y284A): T1 sequence (P30988 25-474 T295A) with Y260A, A271T
The gist of the method: as §1

For another experiment, the target named is T4, hCTR Y372A (Homo sapiens, UniProt P30988, Y372A).
T4 construct: c-Myc (N); expressed in transfected cells
T4 sequence (P30988 25-474 Y372A): T1 sequence (P30988 25-474 T295A) with A271T, Y348A
The gist of the method:
as §1

Substitutions are numbered along the chain they refer to. Where no end group is shown, it is not given here.

As for “VLGKLSQELHKLQTYPRTNTGSGTP-NH2 [sCT(8-32)]”, the Ki at hCTR T295A is 0.0501 nM; on hCTR T280A it was 0.245 nM; on hCTR Y284A it was 0.141 nM; on hCTR Y372A it was 0.141 nM.
